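Each compound was tested at five concentrations against cells in 96-well plates for 48 hours. TGI is the concentration that stops growth completely.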
How the values were obtained:
Assay in all cases: growth of human tumour cells (NCI), 48 h
786-0 renal = system: 786-0 renal
A498 renal = system: A498 renal
A549 NSCLC = system: A549 NSCLC
ACHN renal = system: ACHN renal
BT-549 breast = system: BT-549 breast
CAKI-1 renal = system: CAKI-1 renal
DU-145 prostate = system: DU-145 prostate
EKVX NSCLC = system: EKVX NSCLC
HCC-2998 colon = system: HCC-2998 colon
HCT-116 colon = system: HCT-116 colon
HCT-15 colon = system: HCT-15 colon
HOP-62 NSCLC = system: HOP-62 NSCLC
HOP-92 NSCLC = system: HOP-92 NSCLC
HS 578T breast = system: HS 578T breast
HT29 colon = system: HT29 colon
IGROV1 ovarian = system: IGROV1 ovarian
K-562 leukemia = system: K-562 leukemia
M14 melanoma = system: M14 melanoma
MCF7 breast = system: MCF7 breast
MDA-MB-231 breast = system: MDA-MB-231 breast
MDA-MB-435 = system: MDA-MB-435
MDA-N = system: MDA-N
MOLT-4 leukemia = system: MOLT-4 leukemia
NCI-H23 lung = system: NCI-H23 lung
NCI-H460 lung = system: NCI-H460 lung
NCI-H522 lung = system: NCI-H522 lung
OVCAR-3 ovarian = system: OVCAR-3 ovarian
OVCAR-4 ovarian = system: OVCAR-4 ovarian
OVCAR-5 ovarian = system: OVCAR-5 ovarian
OVCAR-8 ovarian = system: OVCAR-8 ovarian
PC-3 prostate = system: PC-3 prostate
RXF 393 renal = system: RXF 393 renal
SF-268 CNS = system: SF-268 CNS
SF-295 CNS = system: SF-295 CNS
SF-539 CNS = system: SF-539 CNS
SK-MEL-2 melanoma = system: SK-MEL-2 melanoma
SK-MEL-28 melanoma = system: SK-MEL-28 melanoma
SK-MEL-5 melanoma = system: SK-MEL-5 melanoma
SK-OV-3 ovarian = system: SK-OV-3 ovarian
SNB-19 CNS = system: SNB-19 CNS
SW-620 colon = system: SW-620 colon
T-47D breast = system: T-47D breast
TK-10 renal = system: TK-10 renal
U251 CNS = system: U251 CNS
UACC-257 melanoma = system: UACC-257 melanoma
UACC-62 melanoma = system: UACC-62 melanoma
UO-31 renal = system: UO-31 renal
CCRF-CEM leukemia = system: CCRF-CEM leukemia
COLO 205 colon = system: COLO 205 colon
HL-60(TB) leukemia = system: HL-60(TB) leukemia
KM12 colon = system: KM12 colon
LOX IMVI melanoma = system: LOX IMVI melanoma
MALME-3M melanoma = system: MALME-3M melanoma
NCI-H226 lung = system: NCI-H226 lung
NCI/ADR-RES ovarian = system: NCI/ADR-RES ovarian
SN12C renal = system: SN12C renal
RPMI-8226 leukemia = system: RPMI-8226 leukemia
SNB-75 CNS = system: SNB-75 CNS

CC(C)=NNC1=NC(C)(C)P(=O)(NNc2ncccn2)S1 (stereo not given)
TGI (786-0 renal): > 100 µM
TGI (A498 renal): > 100 µM
TGI (A549 NSCLC): > 100 µM
TGI (ACHN renal): > 100 µM
TGI (BT-549 breast): > 100 µM
TGI (CAKI-1 renal): > 100 µM
TGI (DU-145 prostate): > 100 µM
TGI (EKVX NSCLC): > 100 µM
TGI (HCC-2998 colon): > 100 µM
TGI (HCT-116 colon): > 100 µM
TGI (HCT-15 colon): > 100 µM
TGI (HOP-62 NSCLC): > 100 µM
TGI (HOP-92 NSCLC): > 100 µM
TGI (HS 578T breast): > 100 µM
TGI (HT29 colon): > 100 µM
TGI (IGROV1 ovarian): > 100 µM
TGI (K-562 leukemia): > 100 µM
TGI (M14 melanoma): > 100 µM
TGI (MCF7 breast): > 100 µM
TGI (MDA-MB-231 breast): > 100 µM
TGI (MDA-MB-435): > 100 µM
TGI (MDA-N): > 100 µM
TGI (MOLT-4 leukemia): > 100 µM
TGI (NCI-H23 lung): > 100 µM
TGI (NCI-H460 lung): > 100 µM
TGI (NCI-H522 lung): > 100 µM
TGI (OVCAR-3 ovarian): > 100 µM
TGI (OVCAR-4 ovarian): > 100 µM
TGI (OVCAR-5 ovarian): > 100 µM
TGI (OVCAR-8 ovarian): > 100 µM
TGI (PC-3 prostate): > 100 µM
TGI (RXF 393 renal): > 100 µM
TGI (SF-268 CNS): > 100 µM
TGI (SF-295 CNS): > 100 µM
TGI (SF-539 CNS): > 100 µM
TGI (SK-MEL-2 melanoma): > 100 µM
TGI (SK-MEL-28 melanoma): > 100 µM
TGI (SK-MEL-5 melanoma): > 100 µM
TGI (SK-OV-3 ovarian): > 100 µM
TGI (SNB-19 CNS): > 100 µM
TGI (SW-620 colon): > 100 µM
TGI (T-47D breast): > 100 µM
TGI (TK-10 renal): > 100 µM
TGI (U251 CNS): > 100 µM
TGI (UACC-257 melanoma): > 100 µM
TGI (UACC-62 melanoma): > 100 µM
TGI (UO-31 renal): > 100 µM

NC12CC3C4CC5(N)CC3C(C1)C(C5)C4C2
TGI (786-0 renal): > 100 µM
TGI (A498 renal): > 100 µM
TGI (A549 NSCLC): > 100 µM
TGI (ACHN renal): > 100 µM
TGI (BT-549 breast): > 100 µM
TGI (CAKI-1 renal): > 100 µM
TGI (CCRF-CEM leukemia): > 100 µM
TGI (COLO 205 colon): > 100 µM
TGI (EKVX NSCLC): > 100 µM
TGI (HCT-116 colon): > 100 µM
TGI (HCT-15 colon): > 100 µM
TGI (HL-60(TB) leukemia): > 100 µM
TGI (HOP-62 NSCLC): > 100 µM
TGI (HOP-92 NSCLC): > 100 µM
TGI (HS 578T breast): > 100 µM
TGI (HT29 colon): > 100 µM
TGI (IGROV1 ovarian): > 100 µM
TGI (K-562 leukemia): > 100 µM
TGI (KM12 colon): > 100 µM
TGI (LOX IMVI melanoma): > 100 µM
TGI (M14 melanoma): > 100 µM
TGI (MALME-3M melanoma): > 100 µM
TGI (MCF7 breast): > 100 µM
TGI (MDA-MB-231 breast): > 100 µM
TGI (MDA-MB-435): > 100 µM
TGI (MDA-N): > 100 µM
TGI (MOLT-4 leukemia): > 100 µM
TGI (NCI-H226 lung): > 100 µM
TGI (NCI-H23 lung): > 100 µM
TGI (NCI-H460 lung): > 100 µM
TGI (NCI-H522 lung): > 100 µM
TGI (NCI/ADR-RES ovarian): > 100 µM
TGI (OVCAR-3 ovarian): > 100 µM
TGI (OVCAR-4 ovarian): > 100 µM
TGI (OVCAR-5 ovarian): > 100 µM
TGI (OVCAR-8 ovarian): > 100 µM
TGI (PC-3 prostate): > 100 µM
TGI (RXF 393 renal): > 100 µM
TGI (SF-268 CNS): > 100 µM
TGI (SF-295 CNS): > 100 µM
TGI (SK-MEL-2 melanoma): > 100 µM
TGI (SK-MEL-28 melanoma): > 100 µM
TGI (SK-MEL-5 melanoma): > 100 µM
TGI (SK-OV-3 ovarian): > 100 µM
TGI (SN12C renal): > 100 µM
TGI (SNB-19 CNS): > 100 µM
TGI (SW-620 colon): > 100 µM
TGI (T-47D breast): > 100 µM
TGI (TK-10 renal): > 100 µM
TGI (U251 CNS): > 100 µM
TGI (UACC-257 melanoma): > 100 µM
TGI (UACC-62 melanoma): > 100 µM
TGI (UO-31 renal): > 100 µM

C[n+]1c2ccccc2c2/c(=C\C#N)c3ccccc3n21
TGI (786-0 renal): 14.8 µM
TGI (A498 renal): 82.8 µM
TGI (A549 NSCLC): 32.9 µM
TGI (ACHN renal): 18.5 µM
TGI (BT-549 breast): 8.42 µM
TGI (CAKI-1 renal): 95.4 µM
TGI (CCRF-CEM leukemia): 50.2 µM
TGI (COLO 205 colon): 4.87 µM
TGI (DU-145 prostate): 45.8 µM
TGI (EKVX NSCLC): 6.54 µM
TGI (HCC-2998 colon): 5.27 µM
TGI (HCT-116 colon): 8.45 µM
TGI (HCT-15 colon): 97.2 µM
TGI (HL-60(TB) leukemia): 26.3 µM
TGI (HOP-62 NSCLC): 8.17 µM
TGI (HS 578T breast): > 100 µM
TGI (HT29 colon): 16.5 µM
TGI (IGROV1 ovarian): 12.2 µM
TGI (K-562 leukemia): > 100 µM
TGI (KM12 colon): 31.7 µM
TGI (LOX IMVI melanoma): 16.6 µM
TGI (M14 melanoma): 18.6 µM
TGI (MALME-3M melanoma): 7.55 µM
TGI (MCF7 breast): 21.7 µM
TGI (MDA-MB-231 breast): 82.3 µM
TGI (MDA-MB-435): 28.1 µM
TGI (MDA-N): 18.6 µM
TGI (MOLT-4 leukemia): 57.7 µM
TGI (NCI-H226 lung): 17.6 µM
TGI (NCI-H23 lung): 77.1 µM
TGI (NCI-H460 lung): 22.8 µM
TGI (NCI/ADR-RES ovarian): > 100 µM
TGI (OVCAR-3 ovarian): 33.1 µM
TGI (OVCAR-4 ovarian): 11.4 µM
TGI (OVCAR-5 ovarian): 26.1 µM
TGI (OVCAR-8 ovarian): 15.9 µM
TGI (RPMI-8226 leukemia): 16.9 µM
TGI (RXF 393 renal): 21.9 µM
TGI (SF-268 CNS): 29.3 µM
TGI (SF-295 CNS): 19.2 µM
TGI (SF-539 CNS): 17.5 µM
TGI (SK-MEL-2 melanoma): 8.52 µM
TGI (SK-MEL-28 melanoma): 30.3 µM
TGI (SK-MEL-5 melanoma): 61.3 µM
TGI (SK-OV-3 ovarian): 16 µM
TGI (SN12C renal): 38 µM
TGI (SNB-19 CNS): > 100 µM
TGI (SNB-75 CNS): 8.16 µM
TGI (SW-620 colon): 11.8 µM
TGI (T-47D breast): 58.5 µM
TGI (TK-10 renal): 8.46 µM
TGI (U251 CNS): 13.9 µM
TGI (UACC-257 melanoma): 20.8 µM
TGI (UACC-62 melanoma): 54.2 µM
TGI (UO-31 renal): 26.7 µM

Reference: PubChem BioAssay (NCI)
